The text below walks through data of ChEMBL document CHEMBL1201862, “PubChem BioAssay data set” (2004).

Test systems include CAKI-1; UACC-62; HCC 2998; U-251; Malme-3M; OVCAR-3; COLO 205; SF-539; MDA-MB-231; NCI-H522; HCT-15; A498; KM12; OVCAR-4; ACHN; SNB-75; UACC-257; NCI-H226; SK-MEL-2; M14.
Assay in all cases: NCI anticancer screen, dose series, 48 h

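Following 48 hours of exposure in 96-well plates, responses at five concentrations were used to interpolate endpoints linearly. The concentration for 50% growth inhibition is given as GI50.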 The source made the active and inactive calls. Cut-off read from the data, not from the text of the source: active = GI50 up to about 1.1 µM and inactive = higher.

On to `COc1cc(CC(C)C(C)Cc2ccc(O)c(OC)c2)ccc1O` (stereo not given) [DIHYDROGUAIARETIC ACID], for which the GI50 with CAKI-1 was 16.9 µM (inactive); in the experiment on UACC-62, 16.7 µM (inactive); in the experiment with HCC 2998, 18.5 µM (inactive); with U-251, 14.8 µM (inactive); in the experiment on Malme-3M, 13.1 µM (inactive); in the experiment on OVCAR-3 it was 16 µM (inactive). Also, the GI50 in the experiment on COLO 205 was > 50 µM (inactive); in the experiment on SF-539 it was 31.8 µM (inactive); with MDA-MB-231 it was 10.1 µM (inactive); with NCI-H522 it was 9.86 µM (inactive); with HCT-15, 20 µM; in the experiment with A498, 18.5 µM (inactive). For the same compound, the GI50 was 14.7 µM (inactive) in the experiment with KM12; 20.1 µM (inactive) with OVCAR-4; 13.1 µM (inactive) in the experiment on ACHN; 14.2 µM (inactive) in the experiment with SNB-75; 15.8 µM (inactive) in the experiment with UACC-257; 14.2 µM (inactive) with NCI-H226. In addition, the GI50 in the experiment with SK-MEL-2 was 9.68 µM (inactive); in the experiment with M14 it was 14.1 µM (inactive).
Turning to `CN(C)CCCNc1c2c(nc3ccc(Cl)cc13)CCCC2`, the GI50 is 23.3 µM (inactive) in the experiment with CAKI-1; 16.9 µM (inactive) in the experiment with UACC-62; 5.27 µM (inactive) in the experiment with HCC 2998; 14.9 µM (inactive) in the experiment with U-251; 15.6 µM (inactive) in the experiment on Malme-3M; 14.8 µM (inactive) with OVCAR-3. Also, the GI50 in the experiment on COLO 205 is 8.51 µM (inactive); with SF-539, 13.5 µM (inactive); in the experiment on MDA-MB-231, 13.6 µM (inactive); in the experiment on NCI-H522 it was 12.2 µM (inactive); in the experiment with HCT-15, 13.3 µM; with A498, 18 µM (inactive). The GI50 is 13.6 µM (inactive) in the experiment with KM12; 15.3 µM (inactive) in the experiment on OVCAR-4; 16.1 µM (inactive) in the experiment with ACHN; 15.7 µM (inactive) in the experiment on SNB-75; 16.3 µM (inactive) in the experiment on UACC-257; 22.3 µM (inactive) in the experiment on NCI-H226. Besides, the GI50 was 19.3 µM (inactive) in the experiment on SK-MEL-2 and 13.8 µM (inactive) in the experiment on M14.
For `CC(C)C12CCC3(CCC4C(C)(C(=O)O)CCCC4(C)C3C1)C(CN)C2` (stereo not given), the GI50 in the experiment with CAKI-1 is 35.4 µM (inactive); in the experiment with UACC-62, 32.4 µM (inactive); with HCC 2998 it was 18.4 µM (inactive); in the experiment on U-251 it was 31.4 µM (inactive); in the experiment with Malme-3M, 45 µM (inactive); in the experiment with OVCAR-3, 40.1 µM (inactive). Moreover, the GI50 with COLO 205 is 17.7 µM (inactive); with SF-539 it was 28.2 µM (inactive); in the experiment on MDA-MB-231 it was 58.7 µM (inactive); with NCI-H522, 23.8 µM (inactive); in the experiment on HCT-15, 31.9 µM; in the experiment with A498, 28.8 µM (inactive). For the same compound, the GI50 is 35.8 µM (inactive) with KM12; 67.9 µM (inactive) with OVCAR-4; 33.4 µM (inactive) in the experiment on ACHN; 88.5 µM (inactive) in the experiment with SNB-75; 40.1 µM (inactive) in the experiment with UACC-257; 34.2 µM (inactive) in the experiment with NCI-H226. In addition, the GI50 with SK-MEL-2 was 42.9 µM (inactive); with M14, 30.4 µM (inactive).
For `COC(=O)C1(Cc2ccccc2C)Cc2ccc(C)cc2C1=O` (stereo not given), the GI50 in the experiment on CAKI-1 was 36.1 µM (inactive); in the experiment with UACC-62, 40.6 µM (inactive); in the experiment on HCC 2998 it was 48 µM (inactive); in the experiment with U-251, 39 µM (inactive); with Malme-3M, 23.2 µM (inactive); in the experiment on OVCAR-3, 27.7 µM (inactive). In addition, the GI50 with COLO 205 was 19.5 µM (inactive); in the experiment on SF-539, 37.5 µM (inactive); with MDA-MB-231, 42.2 µM (inactive); with NCI-H522, 17.3 µM (inactive); in the experiment with HCT-15, 27.4 µM; in the experiment on A498 it was 31.3 µM (inactive). Also, the GI50 in the experiment on KM12 was 31.2 µM (inactive); in the experiment on OVCAR-4, 36.6 µM (inactive); with ACHN, 34.9 µM (inactive); in the experiment with SNB-75, 58.3 µM (inactive); in the experiment on UACC-257 it was 29.4 µM (inactive); in the experiment on NCI-H226, 34.2 µM (inactive). The GI50 with SK-MEL-2 is 21.2 µM (inactive); with M14, 37.2 µM (inactive).
Turning to `CCCNCC(O)CNc1ccc(NCC(O)CNCCC)c2c1C(=O)c1ccccc1C2=O` (stereo not given), the GI50 in the experiment on CAKI-1 is 12.6 µM (inactive); with UACC-62, 1.9 µM (inactive); in the experiment on HCC 2998, 1.38 µM (inactive); in the experiment on U-251 it was 2.57 µM (inactive); with Malme-3M it was 2.7 µM (inactive); in the experiment with OVCAR-3, 4.37 µM (inactive). In addition, the GI50 in the experiment with COLO 205 is 2.31 µM (inactive); in the experiment on SF-539, 1.71 µM (inactive); in the experiment on MDA-MB-231, 2.98 µM (inactive); in the experiment on NCI-H522, 1.21 µM (inactive); in the experiment on HCT-15, 43.9 µM; in the experiment on A498, 11.7 µM (inactive). Further, the GI50 in the experiment with KM12 was 3.41 µM (inactive); in the experiment on OVCAR-4 it was 3.07 µM (inactive); in the experiment on ACHN it was 8.83 µM (inactive); with SNB-75, 2.29 µM (inactive); with UACC-257, 7.85 µM (inactive); in the experiment with NCI-H226 it was 2 µM (inactive). The GI50 with SK-MEL-2 was 2.16 µM (inactive); in the experiment on M14 it was 3.33 µM (inactive).
On to `COc1ccc2c(c1)/C(=C\c1c(Cl)[nH]c3cc(C)c(OC)cc13)C(=O)N2`, for which the GI50 in the experiment on CAKI-1 was 1.46 µM (inactive); in the experiment with UACC-62, 0.434 µM (active); with HCC 2998, 1.64 µM (inactive); in the experiment on U-251 it was 0.653 µM (active); with Malme-3M it was 1.28 µM (inactive); with OVCAR-3, 0.347 µM (active). Besides, the GI50 in the experiment on COLO 205 was 1.03 µM (active); in the experiment with SF-539, 0.266 µM (active); in the experiment with MDA-MB-231 it was 2.93 µM (inactive); with NCI-H522, 1.19 µM (inactive); with HCT-15 it was 0.467 µM; in the experiment on A498 it was 0.83 µM (active). For the same compound, the GI50 with KM12 is 0.467 µM (active); with OVCAR-4, 1.45 µM (inactive); in the experiment on ACHN, 1.05 µM (active); in the experiment on SNB-75 it was 0.984 µM (active); in the experiment with UACC-257, 2.63 µM (inactive); in the experiment with NCI-H226, 6.04 µM (inactive). The GI50 was 0.713 µM (active) with SK-MEL-2 and 0.698 µM (active) with M14.
For `N#CC1=C(N)N(c2ccccc2)C(c2ccccc2)C1(C#N)C#N` (stereo not given), the GI50 was 20.9 µM (inactive) in the experiment with CAKI-1; 18.2 µM (inactive) in the experiment on UACC-62; 16.4 µM (inactive) with HCC 2998; 17.1 µM (inactive) in the experiment with U-251; 17.6 µM (inactive) with Malme-3M; 17.8 µM (inactive) in the experiment on OVCAR-3. Further, the GI50 is 17.2 µM (inactive) in the experiment on COLO 205; 14.7 µM (inactive) with SF-539; 14.3 µM (inactive) with MDA-MB-231; 16.3 µM (inactive) with NCI-H522; 20.6 µM with HCT-15; 17.4 µM (inactive) in the experiment with A498. The GI50 was 14.5 µM (inactive) in the experiment with KM12; 19.6 µM (inactive) in the experiment with OVCAR-4; 18.1 µM (inactive) in the experiment on ACHN; 15.3 µM (inactive) in the experiment with SNB-75; 19.1 µM (inactive) in the experiment on UACC-257; 17.7 µM (inactive) in the experiment with NCI-H226. The results for the GI50 in the experiment on SK-MEL-2 and with M14 were 16.4 µM (inactive) and 21 µM (inactive), respectively.
Turning to `CC(=O)OCc1cc2ccccc2nc1C(Br)(Br)Br`, the GI50 is 15.7 µM (inactive) with CAKI-1; 15.5 µM (inactive) with UACC-62; 15.4 µM (inactive) in the experiment on HCC 2998; 14 µM (inactive) with U-251; 0.603 µM (active) with Malme-3M; 14.8 µM (inactive) with OVCAR-3. Moreover, the GI50 with COLO 205 was 19.6 µM (inactive); with SF-539, 21.1 µM (inactive); in the experiment with MDA-MB-231 it was 19.3 µM (inactive); in the experiment on NCI-H522, 16 µM (inactive); in the experiment on HCT-15, 16.9 µM; with A498 it was 21.2 µM (inactive). For the same compound, the GI50 was 13 µM (inactive) with KM12; 11.8 µM (inactive) in the experiment with OVCAR-4; 13.2 µM (inactive) with ACHN; 14.6 µM (inactive) with SNB-75; 12.4 µM (inactive) in the experiment with UACC-257; 21.5 µM (inactive) with NCI-H226. For the same compound, the GI50 is 18.5 µM (inactive) in the experiment with SK-MEL-2 and 18.8 µM (inactive) in the experiment with M14.
As for `CC1(C)CC(=O)c2c(nc3c4c([nH]c(-c5ccc(Br)cc5)c24)CC(C)(C)C3)C1`, the GI50 was 50.4 µM (inactive) in the experiment with CAKI-1; 53.6 µM (inactive) in the experiment with UACC-62; 19.2 µM (inactive) with HCC 2998; 23.8 µM (inactive) with U-251; 49.1 µM (inactive) in the experiment on Malme-3M; 27.1 µM (inactive) in the experiment with OVCAR-3. In addition, the GI50 was 19.8 µM (inactive) with COLO 205; 76.6 µM (inactive) in the experiment with SF-539; 44 µM (inactive) with MDA-MB-231; 23.6 µM (inactive) with NCI-H522; 31.3 µM with HCT-15; 13.6 µM (inactive) in the experiment on A498. Further, the GI50 was 33.4 µM (inactive) in the experiment on KM12; 30.7 µM (inactive) with OVCAR-4; 42.7 µM (inactive) with ACHN; 27.9 µM (inactive) in the experiment with SNB-75; 66.7 µM (inactive) with UACC-257; 40.8 µM (inactive) in the experiment on NCI-H226. The GI50 in the experiment on SK-MEL-2 and in the experiment on M14 was 36.6 µM (inactive) each time.
As for `Cc1c2c(c(C)c3c[n+](C)ccc13)Oc1ccccc1O2`, the GI50 is > 67.5 µM (inactive) in the experiment with CAKI-1; 12.7 µM (inactive) in the experiment on UACC-62; 6.56 µM (inactive) with HCC 2998; 1.21 µM (inactive) in the experiment on U-251; 2.56 µM (inactive) with Malme-3M; 3.17 µM (inactive) with OVCAR-3. The GI50 is 6.34 µM (inactive) with COLO 205; 3.78 µM (inactive) in the experiment on SF-539; 24.6 µM (inactive) with MDA-MB-231; 4.42 µM (inactive) with NCI-H522; above 62.2 µM with HCT-15; 28.6 µM (inactive) with A498. Besides, the GI50 in the experiment on KM12 is 0.82 µM (active); in the experiment with OVCAR-4 it was 9.42 µM (inactive); in the experiment on ACHN, 34.9 µM (inactive); with SNB-75 it was 5.28 µM (inactive); in the experiment on UACC-257, 6.87 µM (inactive); in the experiment on NCI-H226, 5.66 µM (inactive). Also, the values for the GI50 with SK-MEL-2 and in the experiment on M14 were 12.2 µM (inactive) and 18.2 µM (inactive), respectively.
